Among the test systems are 786-0 renal; MDA-MB-231 breast; KM12 colon; CAKI-1 renal; MALME-3M melanoma; NCI-H522 lung; OVCAR-4 ovarian; RPMI-8226 leukemia; SF-295 CNS; IGROV1 ovarian; LOX IMVI melanoma; BT-549 breast; SK-OV-3 ovarian; HOP-92 NSCLC; SNB-75 CNS; SK-MEL-28 melanoma; PC-3 prostate; T-47D breast; HS 578T breast; HCC-2998 colon; SN12C renal; HCT-15 colon; MCF7 breast; EKVX NSCLC; U251 CNS; SR leukemia; ACHN renal; A549 NSCLC; CCRF-CEM leukemia; A498 renal; SK-MEL-5 melanoma; DU-145 prostate; TK-10 renal; SF-539 CNS; M14 melanoma; MDA-MB-468 breast; SW-620 colon; SNB-19 CNS; HOP-62 NSCLC; OVCAR-3 ovarian; COLO 205 colon; K-562 leukemia; UO-31 renal; RXF 393 renal; SF-268 CNS; NCI-H23 lung; UACC-257 melanoma; NCI-H460 lung; NCI-H226 lung; UACC-62 melanoma; HL-60(TB) leukemia; MOLT-4 leukemia; OVCAR-8 ovarian; HCT-116 colon; OVCAR-5 ovarian; HT29 colon; MDA-MB-435.

Holding throughout (assay): inhibition of tumour cell growth, NCI panel, 48 h

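Method: 48-hour compound exposure of cells in 96-well plates, five concentrations, linear interpolation of endpoints. At the GI50, growth is halved. TGI marks complete inhibition of growth.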

For the molecule `Cc1cccc(NC(=O)[C@]23CCC(C)(C)CC2C2=CCC4[C@@]5(C)C[C@@H](O)[C@H](O)[C@@](C)(CO)C5CC[C@@]4(C)[C@]2(C)CC3)c1` (some centres not stated), the GI50 is 14.6 µM in the experiment with 786-0 renal; 13.8 µM in the experiment on MDA-MB-231 breast; 14.1 µM in the experiment with KM12 colon; 6.63 µM in the experiment with CAKI-1 renal; 14.7 µM in the experiment with MALME-3M melanoma; 14.6 µM in the experiment with NCI-H522 lung. Besides, the GI50 in the experiment on OVCAR-4 ovarian was 11.5 µM; with RPMI-8226 leukemia it was 6.25 µM; in the experiment on SF-295 CNS, 10 µM; with IGROV1 ovarian, 12.2 µM; with LOX IMVI melanoma, 12.8 µM; in the experiment with BT-549 breast it was 14.3 µM. Besides, the GI50 is 14.5 µM in the experiment with SK-OV-3 ovarian; 8.64 µM in the experiment on HOP-92 NSCLC; 6.02 µM in the experiment on SNB-75 CNS; 13.3 µM in the experiment with SK-MEL-28 melanoma; 5.16 µM in the experiment with PC-3 prostate; 7.45 µM in the experiment on T-47D breast. Moreover, the GI50 in the experiment with HS 578T breast was 12.8 µM; with HCC-2998 colon, 13 µM; in the experiment on SN12C renal it was 12.6 µM; in the experiment on HCT-15 colon, 10.8 µM; with MCF7 breast, 5.71 µM; in the experiment with EKVX NSCLC it was 12.8 µM. Moreover, the GI50 in the experiment on U251 CNS is 14.9 µM; in the experiment on SR leukemia, 16.7 µM; with ACHN renal it was 12.4 µM; in the experiment with A549 NSCLC, 22.2 µM; with CCRF-CEM leukemia, 9.29 µM; in the experiment on A498 renal, 15.7 µM. The GI50 was 11.9 µM with SK-MEL-5 melanoma; 16.5 µM in the experiment on DU-145 prostate; 16.5 µM in the experiment on TK-10 renal; 13.9 µM in the experiment with SF-539 CNS; 13.7 µM in the experiment on M14 melanoma; 5170 nM with MDA-MB-468 breast. Also, the GI50 with SW-620 colon is 15 µM; in the experiment on SNB-19 CNS, 18.4 µM; with HOP-62 NSCLC, 14.9 µM; with OVCAR-3 ovarian, 14 µM; in the experiment on COLO 205 colon, 13.6 µM; in the experiment on K-562 leukemia, 14.5 µM. In addition, the GI50 was 7.07 µM in the experiment on UO-31 renal; 3.77 µM with RXF 393 renal; 14.1 µM in the experiment with SF-268 CNS; 14.6 µM with NCI-H23 lung; 15.3 µM in the experiment on UACC-257 melanoma; 12.5 µM with NCI-H460 lung. The GI50 with NCI-H226 lung was 10.4 µM; with UACC-62 melanoma, 11.3 µM; in the experiment on HL-60(TB) leukemia it was 15.2 µM; in the experiment on MOLT-4 leukemia it was 7.87 µM; in the experiment with OVCAR-8 ovarian it was 18.5 µM; with HCT-116 colon, 10.7 µM. In addition, the GI50 with OVCAR-5 ovarian was 13.3 µM; in the experiment on HT29 colon, 13.1 µM; with MDA-MB-435, 13.3 µM. Further, the TGI in the experiment with 786-0 renal was 29.4 µM; in the experiment with MDA-MB-231 breast, 28.1 µM; with KM12 colon, 30.8 µM; with CAKI-1 renal, 21.9 µM; in the experiment with MALME-3M melanoma, 28.3 µM; with NCI-H522 lung, 28.9 µM. In addition, the TGI in the experiment with OVCAR-4 ovarian was determined as 25.2 µM; in the experiment with RPMI-8226 leukemia it was 32 µM; in the experiment with SF-295 CNS, 22.5 µM; in the experiment on IGROV1 ovarian it was 25.4 µM; in the experiment on LOX IMVI melanoma, 27.8 µM; in the experiment with BT-549 breast it was 27.8 µM. Besides, the TGI with SK-OV-3 ovarian is 34.6 µM; with HOP-92 NSCLC it was 23.1 µM; in the experiment with SNB-75 CNS, 39.1 µM; with SK-MEL-28 melanoma it was 26.5 µM; with PC-3 prostate, 20.5 µM; in the experiment with T-47D breast, 20.7 µM. Further, the TGI came out at 50.8 µM in the experiment with HS 578T breast; 26.2 µM with HCC-2998 colon; 25.5 µM with SN12C renal; 23.4 µM in the experiment with HCT-15 colon; 19.2 µM in the experiment with MCF7 breast; 29.1 µM with EKVX NSCLC. For the same molecule, the TGI in the experiment on U251 CNS is 30.1 µM; with SR leukemia it was > 100 µM; in the experiment with ACHN renal, 24.9 µM; in the experiment on A549 NSCLC it was > 100 µM; in the experiment with CCRF-CEM leukemia it was 35.1 µM; in the experiment with A498 renal, 29.4 µM. The TGI came to 24.3 µM with SK-MEL-5 melanoma; 39.1 µM in the experiment with DU-145 prostate; 35.8 µM in the experiment with TK-10 renal; 28 µM in the experiment on SF-539 CNS; 27.3 µM with M14 melanoma; 20.4 µM with MDA-MB-468 breast. In addition, the TGI was 29.7 µM in the experiment with SW-620 colon; 47.4 µM in the experiment on SNB-19 CNS; 29.4 µM in the experiment with HOP-62 NSCLC; 28 µM in the experiment on OVCAR-3 ovarian; 29.1 µM with COLO 205 colon; 60.5 µM with K-562 leukemia. Also, the TGI in the experiment on UO-31 renal was 20.3 µM; in the experiment with RXF 393 renal, 17 µM; in the experiment with SF-268 CNS, 42.3 µM; in the experiment on NCI-H23 lung, 28.8 µM; with UACC-257 melanoma, 31.5 µM; in the experiment with NCI-H460 lung, 25.6 µM. The TGI in the experiment on NCI-H226 lung came out at 22.9 µM; in the experiment on UACC-62 melanoma it was 23.7 µM; in the experiment with HL-60(TB) leukemia, 55.9 µM; in the experiment with MOLT-4 leukemia it was 52 µM; with OVCAR-8 ovarian, 60.2 µM; in the experiment with HCT-116 colon it was 22.5 µM. The TGI in the experiment with OVCAR-5 ovarian worked out at 26.4 µM; in the experiment on HT29 colon, 27 µM; in the experiment with MDA-MB-435, 26.5 µM.
For `O=c1oc2ccccc2c(Cl)c1Cl`, in the experiment with MDA-MB-468 breast, the GI50 was 1850 nM and the TGI came to 4.32 µM.
As for `COc1c(O)cc2oc3cc(O)c(CC=C(C)C)c(O)c3c(=O)c2c1C/C=C(\C)CCC=C(C)C`, in the experiment on MDA-MB-468 breast, the GI50 is 7160 nM and the TGI is 12.5 µM.
On the same counts, the results for `COc1ccc(/C=C(\C#N)n2nnc3cc(Cl)ccc32)cc1` are 258 nM and 0.941 µM.
The corresponding values for `CCNCCNc1cc(-c2ccc(Cl)cc2)c(C#N)c2nc3ccccc3n12` are 642 nM and 2.09 µM.
On the same counts, the results for `O=P(Oc1ccccc1)(Oc1ccccc1)C(O)c1ccccc1` (configuration not stated) are 35000 nM and > 100 µM.
For `C=C1C(=O)O[C@H]2[C@H]1CC/C(COC(=O)/C=C/c1cccnc1)=C\CC[C@@]1(C)O[C@@H]21`, in the experiment with MDA-MB-468 breast, the GI50 was 831 nM and the TGI stood at 4.3 µM.
On the same counts, the results for `COc1ccc(C(=O)c2cc(OC)c(OC)c(OC)c2)cc1/C=C/C(=O)c1ccc(O)cc1` are 2070 nM and 8.09 µM.
On the same counts, the results for `OCc1ccc(N(Cc2ccc(F)cc2)C2CCC2)cc1Cl` are 17.6 nM and 0.0464 µM.
On the same counts, the results for `Cc1ccc2c(/C=C/C(=O)c3cc(CN4CCOCC4)c(O)c4nc(C)ccc34)cc(CN3CCOCC3)c(O)c2n1` are 434 nM and 2.02 µM.
For `Cc1c(C(=O)CCl)c(=O)n(-c2ccccc2)n1C`, in the experiment with MDA-MB-468 breast, the GI50 was 675 nM and the TGI worked out at 3.08 µM.
Consider `COc1cc(-c2cc(C(=O)Nc3nc4ccccc4s3)nc3cc(-c4ccccc4)nn23)cc(OC)c1OC`, for which, in the experiment on MDA-MB-468 breast, the GI50 was 13900 nM and the TGI was found to be 38 µM.
Turning to `COc1cccc(-c2nc(-c3ccc(NS(=O)(=O)c4ccccc4)cc3)[nH]c2-c2ccnc(Br)c2)c1`, in the experiment on MDA-MB-468 breast, the GI50 was 1980 nM and the TGI is 5.23 µM.
Turning to `C[C@@H](Oc1cc(-c2cnn(C3CCNCC3)c2)cnc1N)c1c(Cl)ccc(F)c1Cl`, in the experiment with MDA-MB-468 breast, the GI50 was 1060 nM and the TGI amounted to 3.72 µM.
On to `CCOC(=O)Oc1c(OC)cc(C(=O)c2ccc(OC)c(OC(=O)CCl)c2OC)cc1OC`, for which, in the experiment with MDA-MB-468 breast, the GI50 was 2490 nM and the TGI is > 100 µM.

The values above are taken from PubChem BioAssay (NCI).
